Molecular target: T1, Recombinant human PDE4B (Homo sapiens, UniProt Q07343)
T1 construct: aa 305-end; GST (N); made in house; host or cells: Sf9 insect cells (baculovirus)
Assay: PDE4B Phosphodiesterase Assay
Format: biochemical
Set-up: key to Activity Note: PDE4: The (+) symbols identify a compound of the present disclosure with the noted target activity; +*: The (*) symbols indicate preferential activity, where the greater number identifies the most preferred compounds; +**: The (*) symbols indicate preferential activity, where the greater number identifies the most preferred compounds; +***: The (*) symbols indicate preferential activity, where the greater number identifies the most preferred compounds
Details: compound list; + = noted target activity
Method: The assay is based on the fluorescence polarization measuring AMP/GMP production as a result of the enzyme activity by displacement of Tracer binding to the AMP/GMP antibody. • Reaction Buffer: 10 mM Tris-HCl, pH 7.5, 5 mM MgCl2, 0.01% Brij 35, 1 mM DTT and 1% DMSO. • Enzyme: Recombinant human PDE4B (Gene Accession #NM_002600; aa 305-end) was expressed by baculovirus in Sf9 insect cells using an N-terminal GST tag. Mw=78 kDa. • Substrate: 1 μM cAMP • Detection: Transcreener® AMP2/GMP2 Antibody AMP2/GMP2 AlexaFluor 633 Tracer Reaction Procedure: • 1. Prepared indicated enzyme and substrate in freshly prepared Reaction Buffer • 2. Delivered enzyme solution into the reaction well • 3. Delivered compounds in 100% DMSO into the enzyme solution by Acoustic technology (Echo550; nanoliter range), incubated for 10 min at room temperature • 4. Delivered substrate solution into the reaction well to initiate the reaction • 5. Incubated for 1 h at room temperature • 6. Added detection mixture (Tracer and antibody in the stop buffer) to stop the reaction and incubated for 90 min with gentle mixing. The fluorescence polarization was measured at Ex/Em 620/688.
Data Analysis: The FP signals were converted into nM product based on an AMP/GMP standard curve and calculated % Enzyme activity relative to DMSO control by Excel. The curve fit was performed using GraphPad prism.

T1 sequence (Q07343 305-736 limits assumed): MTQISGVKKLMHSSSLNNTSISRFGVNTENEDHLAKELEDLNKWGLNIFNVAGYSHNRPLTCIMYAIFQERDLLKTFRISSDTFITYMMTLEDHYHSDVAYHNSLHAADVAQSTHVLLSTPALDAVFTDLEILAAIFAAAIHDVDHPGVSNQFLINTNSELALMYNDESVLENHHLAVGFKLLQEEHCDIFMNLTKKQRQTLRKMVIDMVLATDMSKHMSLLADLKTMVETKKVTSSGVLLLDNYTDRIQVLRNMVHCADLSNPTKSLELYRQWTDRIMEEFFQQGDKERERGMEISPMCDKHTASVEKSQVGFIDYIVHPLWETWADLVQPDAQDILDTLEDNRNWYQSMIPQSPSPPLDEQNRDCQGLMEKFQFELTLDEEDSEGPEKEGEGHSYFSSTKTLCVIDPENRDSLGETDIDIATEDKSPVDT

| Compound | Activity Note: PDE4 |
| --- | --- |
| OB1OCc2cc(Nc3ncc(C(F)(F)F)c(NCCC4CC4)n3)ccc21 [5-((4-((2-cyclopropylethyl)amino)-5-(trifluoromethyl)pyrimidin-2-yl)amino)benzo[c][1,2]oxaborol-1(3H)-ol] | + |
| CCC(Nc1nc(Nc2ccc3c(c2)COB3O)ncc1C)c1ccccc1 (stereo not drawn) [5-((5-methyl-4-((1-phenylpropyl)amino)pyrimidin-2-yl)amino)benzo[c][1,2]oxaborol-1(3H)-ol] | + |
| Cc1cnc(Nc2ccc3c(c2)COB3O)nc1NC1CCCC1 [5-((4-(cyclopentylamino)-5-methylpyrimidin-2-yl)amino)benzo[c][1,2]oxaborol-1(3H)-ol] | + |
| Cc1cnc(Nc2ccc3c(c2)COB3O)nc1NCc1cccc(F)c1 [5-((4-((3-fluorobenzyl)amino)-5-methylpyrimidin-2-yl)amino)benzo[c][1,2]oxaborol-1(3H)-ol] | + |
| CCCC(CC)Nc1nc(Nc2ccc3c(c2)COB3O)ncc1C(F)(F)F (stereo not drawn) [5-((4-(hexan-3-ylamino)-5-(trifluoromethyl)pyrimidin-2-yl)amino)benzo[c][1,2]oxaborol-1(3H)-ol] | + |
| Cc1cnc(Nc2ccc3c(c2)COB3O)nc1NC(CCO)CCO [3-((2-((1-hydroxy-1,3-dihydrobenzo[c][1,2]oxaborol-5-yl)amino)-5-methylpyrimidin-4-yl)amino)pentane-1,5-diol] | + |
| OB1OCc2cc(Nc3ncc(C(F)(F)F)c(NC4CCCCC4)n3)ccc21 [5-((4-(cyclohexylamino)-5-(trifluoromethyl)pyrimidin-2-yl)amino)benzo[c][1,2]oxaborol-1(3H)-ol] | + |
| CCc1ccccc1Nc1nc(Nc2ccc3c(c2)COB3O)ncc1C [5-((4-((2-ethylphenyl)amino)-5-methylpyrimidin-2-yl)amino)benzo[c][1,2]oxaborol-1(3H)-ol] | + |
| CCC(CC)Nc1ccnc(Nc2ccc3c(c2)COB3O)n1 [5-((4-(pentan-3-ylamino)pyrimidin-2-yl)amino)benzo[c][1,2]oxaborol-1(3H)-ol] | + |
| Cc1cnc(Nc2ccc3c(c2)COB3O)nc1NC1CCCCC1 [5-((4-(cyclohexylamino)-5-methylpyrimidin-2-yl)amino)benzo[c][1,2]oxaborol-1(3H)-ol] | + |
| Cc1cnc(Nc2ccc3c(c2)COB3O)nc1Nc1ccccc1F [5-((4-((2-fluorophenyl)amino)-5-methylpyrimidin-2-yl)amino)benzo[c][1,2]oxaborol-1(3H)-ol] | + |
| CCCC(CC)Nc1nc(Nc2ccc3c(c2)COB3O)ncc1Cl (stereo not drawn) [5-((5-chloro-4-(hexan-3-ylamino)pyrimidin-2-yl)amino)benzo[c][1,2]oxaborol-1(3H)-ol] | + |
| Cc1cnc(Nc2ccc3c(c2)COB3O)nc1NC1CCOC(O)C1 (stereo not drawn) [5-((4-((2-hydroxytetrahydro-2H-pyran-4-yl)amino)-5-methylpyrimidin-2-yl)amino)benzo[c][1,2]oxaborol-1(3H)-ol] | + |
| Cc1cnc(Nc2ccc3c(c2)COB3O)nc1NCc1ccc(F)cc1 [5-((4-((4-fluorobenzyl)amino)-5-methylpyrimidin-2-yl)amino)benzo[c][1,2]oxaborol-1(3H)-ol] | + |
| Cc1cnc(Nc2cc(F)c3c(c2)COB3O)nc1Nc1ccccc1 [7-fluoro-5-((5-methyl-4-(phenylamino)pyrimidin-2-yl)amino)benzo[c][1,2]oxaborol-1(3H)-ol] | + |
| CCC(CC)Nc1nc(Nc2ccc3c(c2)COB3O)ncc1F [5-((5-fluoro-4-(pentan-3-ylamino)pyrimidin-2-yl)amino)benzo[c][1,2]oxaborol-1(3H)-ol] | + |
| OB1OCc2cc(Nc3ncc(Cl)c(NC4CCCC4)n3)cc(F)c21 [5-((5-chloro-4-(cyclopentylamino)pyrimidin-2-yl)amino)-7-fluorobenzo[c][1,2]oxaborol-1(3H)-ol] | + |
| OB1OCc2cc(Nc3ncc(F)c(NC4CCCCC4)n3)ccc21 [5-((4-(cyclohexylamino)-5-fluoropyrimidin-2-yl)amino)benzo[c][1,2]oxaborol-1(3H)-ol] | + |
| OB1OCc2cc(Nc3ncc(F)c(NCCC4CC4)n3)ccc21 [5-((4-((2-cyclopropylethyl)amino)-5-fluoropyrimidin-2-yl)amino)benzo[c][1,2]oxaborol-1(3H)-ol] | + |
| Cc1ccccc1Nc1nc(Nc2ccc3c(c2)COB3O)ncc1C [5-((5-methyl-4-(o-tolylamino)pyrimidin-2-yl)amino)benzo[c][1,2]oxaborol-1(3H)-ol] | + |

| Compound | Activity Note: PDE4 |
| --- | --- |
| Cc1cnc(Nc2ccc3c(c2)COB3O)nc1SC1CCCCC1 [5-((4-(cyclohexylthio)-5-methylpyrimidin-2-yl)amino)benzo[c][1,2]oxaborol-1(3H)-ol] | + |
| CCC(C)Nc1nc(Nc2ccc3c(c2)COB3O)ncc1Cl (stereo not drawn) [5-((4-(sec-butylamino)-5-chloropyrimidin-2-yl)amino)benzo[c][1,2]oxaborol-1(3H)-ol] | + |
| CCC(CO)Nc1nc(Nc2ccc3c(c2)COB3O)ncc1C (stereo not drawn) [5-((4-((1-hydroxybutan-2-yl)amino)-5-methylpyrimidin-2-yl)amino)benzo[c][1,2]oxaborol-1(3H)-ol] | + |
| CS(=O)(=O)c1nc(Nc2ccc3c(c2)COB3O)ncc1Cl [5-((5-chloro-4-(methylsulfonyl)pyrimidin-2-yl)amino)benzo[c][1,2]oxaborol-1(3H)-ol] | + |
| CCC(C)Nc1nc(Nc2ccc3c(c2)COB3O)ncc1C (stereo not drawn) [5-((4-(sec-butylamino)-5-methylpyrimidin-2-yl)amino)benzo[c][1,2]oxaborol-1(3H)-ol] | + |
| CCC(CC)Nc1nc(Nc2ccc3c(c2)COB3O)ncc1C [5-((5-methyl-4-(pentan-3-ylamino)pyrimidin-2-yl)amino)benzo[c][1,2]oxaborol-1(3H)-ol] | + |
| CCC(CC)Nc1nc(Nc2cc(F)c3c(c2)COB3O)ncc1C(F)(F)F [7-fluoro-5-((4-(pentan-3-ylamino)-5-(trifluoromethyl)pyrimidin-2-yl)amino)benzo[c][1,2]oxaborol-1(3H)-ol] | + |
| CCCNc1nc(Nc2ccc3c(c2)COB3O)ncc1F [5-((5-fluoro-4-(propylamino)pyrimidin-2-yl)amino)benzo[c][1,2]oxaborol-1(3H)-ol] | + |
| Cc1cnc(Nc2ccc3c(c2)COB3O)nc1NC(C)c1ccccc1 (stereo not drawn) [5-((5-methyl-4-((1-phenylethyl)amino)pyrimidin-2-yl)amino)benzo[c][1,2]oxaborol-1(3H)-ol] | + |
| CCC(C)Nc1nc(Nc2ccc3c(c2)COB3O)ncc1F (stereo not drawn) [5-((4-(sec-butylamino)-5-fluoropyrimidin-2-yl)amino)benzo[c][1,2]oxaborol-1(3H)-ol] | + |
| Cc1cnc(Nc2ccc3c(c2)COB3O)nc1NC1CCCC(C)C1 (stereo not drawn) [5-((5-methyl-4-((3-methylcyclohexyl)amino)pyrimidin-2-yl)amino)benzo[c][1,2]oxaborol-1(3H)-ol] | + |
| OB1OCc2cc(Nc3ncc(C(F)(F)F)c(NCc4ccccc4)n3)ccc21 [5-((4-(benzylamino)-5-(trifluoromethyl)pyrimidin-2-yl)amino)benzo[c][1,2]oxaborol-1(3H)-ol] | + |
| OB1OCc2cc(Nc3ncc(Cl)c(NCc4ccccc4)n3)ccc21 [5-((4-(benzylamino)-5-chloropyrimidin-2-yl)amino)benzo[c][1,2]oxaborol-1(3H)-ol] | + |
| Cc1cnc(Nc2ccc3c(c2)COB3O)nc1Nc1ccccc1 [5-((5-methyl-4-(phenylamino)pyrimidin-2-yl)amino)benzo[c][1,2]oxaborol-1(3H)-ol] | + |
| OB1OCc2cc(Nc3ncc(Cl)c(NCCC4CC4)n3)ccc21 [5-((5-chloro-4-((2-cyclopropylethyl)amino)pyrimidin-2-yl)amino)benzo[c][1,2]oxaborol-1(3H)-ol] | + |
| Cc1cnc(Nc2ccc3c(c2)COB3O)nc1Nc1cccc2c1C(=O)N(CCF)C2 [2-(2-fluoroethyl)-7-((2-((1-hydroxy-1,3-dihydrobenzo[c][1,2]oxaborol-5-yl)amino)-5-methylpyrimidin-4-yl)amino)isoindolin-1-one] | + |
| CCCC(CC)Nc1nc(Nc2ccc3c(c2)COB3O)ncc1C (stereo not drawn) [5-((4-(hexan-3-ylamino)-5-methylpyrimidin-2-yl)amino)benzo[c][1,2]oxaborol-1(3H)-ol] | + |
| Cc1cnc(N(C)c2ccc3c(c2)COB3O)nc1OC1CCCCC1 [drawing 151, 5-((4-(cyclohexyloxy)-5-methylpyrimidin-2-yl)(methyl)amino)benzo[c][1,2]oxaborol-1(3H)-ol] | + |
| CCCNc1nc(Nc2ccc3c(c2)COB3O)ncc1C(F)(F)F [5-((4-(propylamino)-5-(trifluoromethyl)pyrimidin-2-yl)amino)benzo[c][1,2]oxaborol-1(3H)-ol] | + |

From patent US12358932B2, “Chemical compounds” (BORAH, INC., priority 2019, dated 2025)
